{"source": "patent US20230248715A1", "about": "“METHOD OF TREATING ACUTE MIGRAINE WITH CGRP-ACTIVE COMPOUND” (Merck Sharp & Dohme Corp., priority 2016, published 2023)", "key": {"acute migraine": {"test_system": "acute migraine", "assay": "Phase IIb randomized, double-blind, placebo-controlled trial of ubrogepant (MK-1602-006; NCT01613248): efficacy", "type": "in vivo, human", "method": "A Phase IIb, multicenter, randomized, double-blind, placebo-controlled trial was conducted (Merck Protocol MK-1602-006;published online at ClinicalTrials.gov as NCT01613248) to investigate the efficacy and safety of ubrogepant across a range of doses. The study was conducted in accordance with principles of Good Clinical Practice, and was approved by Schulman Associates Institutional Review Board Inc. Each participant provided written informed consent. This study complied with the International Headache Society's guidelines for controlled trials of drugs in migraine, including the use of two-hour pain freedom as an endpoint. The sample size was large, populations were well balanced, and demographics were reflective of the broader migraine populations, contributing to the generalizability of the trial. Participants were allocated in a double-blind fashion using a computer-generated randomized allocation schedule prepared by a blinded statistician. Randomization was stratified based on the participant's self-reported usual triptan response: oral triptan high-responder (current users of triptans who respond […]); oral triptan low-responder (current users of triptans who respond <75% of the time or those who have tried triptans but no longer use them); oral triptan naive. Numbered containers were used to implement allocation. Personnel at each study site used a central interactive voice response system to determine which container should be given to which participant. All study personnel, including investigators, site staff, participants, and sponsor staff remained blinded to treatment allocation throughout the study. Unblinding took place after data collection was complete. After being randomized, participants had up to two months to treat a qualifying migraine (as defined herein). Once the targeted number of treated participants with evaluable data was reached, study enrollment was stopped, as specified in the protocol at the sponsor's discretion. Participants who were enrolled but had not treated a migraine were asked to return their study medication and were discontinued from the study With reference to FIG. 1, eligible participants were allocated in a 1:1 ratio to one of the following treatment groups: 1, 10, 25, 50, and 100 mg of ubrogepant, or placebo. Study medication was provided to participants in a single bottle, with a single dose per bottle. Participants were instructed to take the dose when they experienced a qualifying migraine defined by the following conditions: migraine headache was moderate or severe (grade 2 or 3 on pain scale); migraine headache started less than four hours earlier; the migraine headache was a new headache that had not been previously treated and was not a recurrence of a previous migraine head ache (at least 48 hours had elapsed since the complete termination of their last attack (pain and all associated symptoms); no other migraine headache or headache had occurred in the previous 48 hours; the migraine headache was not already resolving on its own; and no prohibited medication had been taken. The onset of migraine and the results from administering the study medication were self-reported by participants using a paper diary. Headache severity was measured on the following pain scale: 0 none; 1 mild; 2 moderate; 3 severe. Participants assessed headache at baseline and then every 30 minutes up to two hours, then hourly up to four hours and at 6,8,24, and 48 hours. The primary efficacy endpoints were pain freedom at two hours post-dose (reduction in headache severity from grade 2 or 3 at baseline to grade 0) and headache response at two hours post-dose (reduction in headache severity from grade 2 or 3 at baseline to grade 1 or 0). […]"}, "[1]": {"assay": "Phase IIb randomized, double-blind, placebo-controlled trial of ubrogepant (MK-1602-006; NCT01613248): safety endpoints", "type": "in vivo, human", "method": "A Phase IIb, multicenter, randomized, double-blind, placebo-controlled trial was conducted (Merck Protocol MK-1602-006;published online at ClinicalTrials.gov as NCT01613248) to investigate the efficacy and safety of ubrogepant across a range of doses. The study was conducted in accordance with principles of Good Clinical Practice, and was approved by Schulman Associates Institutional Review Board Inc. Each participant provided written informed consent. This study complied with the International Headache Society's guidelines for controlled trials of drugs in migraine, including the use of two-hour pain freedom as an endpoint. The sample size was large, populations were well balanced, and demographics were reflective of the broader migraine populations, contributing to the generalizability of the trial.\nWith reference to FIG. 1, eligible participants were allocated in a 1:1 ratio to one of the following treatment groups: 1, 10, 25, 50, and 100 mg of ubrogepant, or placebo. Study medication was provided to participants in a single bottle, with a single dose per bottle. Participants were instructed to take the dose when they experienced a qualifying migraine defined by the following conditions: migraine headache was moderate or severe (grade 2 or 3 on pain scale); migraine headache started less than four hours earlier; the migraine headache was a new headache that had not been previously treated and was not a recurrence of a previous migraine head ache (at least 48 hours had elapsed since the complete termination of their last attack (pain and all associated symptoms); no other migraine headache or headache had occurred in the previous 48 hours; the migraine headache was not already resolving on its own; and no prohibited medication had been taken.\nParticipants were also monitored for safety endpoints, including standard safety assessment (medical history and physical examination; vital signs; electrocardiogram; laboratory tests including hematology, blood chemistry, and urinalysis; and female participants of childbearing potential were administered pregnancy tests) and adverse events, including any post-screening elevation in participants of aspartate amino-transferase (AST) and/or ALT, defined as: >3×upper-limit-of-normal (>3×ULN).\nFor the analysis of efficacy data, the Full-Analysis-Set population served as the primary population. […] The All-Subjects-as-Treated (ASaT) population was used for safety analyses."}}, "data": [{"molecule": "C[C@@H]1[C@H](c2ccccc2)C[C@H](NC(=O)c2cnc3c(c2)C[C@@]2(C3)C(=O)Nc3ncccc32)C(=O)N1CC(F)(F)F", "note": "[ubrogepant]", "values": [{"measurement": "two-hour pain-free rate vs placebo", "setting": "acute migraine; 25 mg, oral, two hours post-dose, nominal p value", "value": "nominally significantly higher two-hour pain-free rate than placebo"}, {"measurement": "sustained pain freedom 2-24 hours vs placebo", "setting": "acute migraine; 25 mg, oral, nominal p value", "value": "Nominally significant differences from placebo"}, {"measurement": "sustained pain relief 2-48 hours vs placebo", "setting": "acute migraine; 25 mg, oral, nominal p value", "value": "Nominally significant differences from placebo"}, {"measurement": "total migraine freedom at two hours vs placebo", "setting": "acute migraine; 25 mg, oral, nominal p value", "value": "Nominally significant differences from placebo"}, {"measurement": "two-hour pain-free rate vs placebo", "setting": "acute migraine; 50 mg, oral, two hours post-dose, nominal p value", "value": "nominally significantly higher two-hour pain-free rate than placebo"}, {"measurement": "absence of phonophobia at two hours vs placebo", "setting": "acute migraine; 50 mg, oral, nominal p value", "value": "Nominally significant differences from placebo"}, {"measurement": "absence of photophobia at two hours vs placebo", "setting": "acute migraine; 50 mg, oral, nominal p value", "value": "Nominally significant differences from placebo"}, {"measurement": "sustained pain freedom 2-24 hours vs placebo", "setting": "acute migraine; 50 mg, oral, nominal p value", "value": "Nominally significant differences from placebo"}, {"measurement": "sustained pain relief 2-24 hours vs placebo", "setting": "acute migraine; 50 mg, oral, nominal p value", "value": "Nominally significant differences from placebo"}, {"measurement": "sustained pain relief 2-48 hours vs placebo", "setting": "acute migraine; 50 mg, oral, nominal p value", "value": "Nominally significant differences from placebo"}, {"measurement": "total migraine freedom 2-24 hours vs placebo", "setting": "acute migraine; 50 mg, oral, nominal p value", "value": "Nominally significant differences from placebo"}, {"measurement": "total migraine freedom at two hours vs placebo", "setting": "acute migraine; 50 mg, oral, nominal p value", "value": "Nominally significant differences from placebo"}, {"measurement": "two-hour pain freedom vs placebo", "setting": "acute migraine; 100 mg, oral, two hours post-dose", "value": "statistically significant superiority to placebo"}, {"measurement": "secondary endpoints vs placebo", "setting": "acute migraine; 100 mg, oral, nominal p values", "value": "nominally significant improvements vs placebo on all secondary endpoints except absence of nausea at two hours"}, {"measurement": "treatment effects across most endpoints (all efficacy data)", "setting": "acute migraine; 25-mg, 50-mg, and 100-mg doses", "value": "consistent positive treatment effects"}, {"measurement": "response trend across ubrogepant doses, proportion of participants who achieved two-hour pain freedom", "setting": "acute migraine; oral tablet, single dose, 1, 10, 25, 50, 100 mg, p<0.001 for trend test", "value": "positive response trend"}, {"measurement": "dose dependence of AEs", "setting": "[1]; 1-100 mg single dose", "value": "No AEs showed clear dose dependence"}, {"measurement": "incidence of AEs within the 14 days post-dose", "setting": "[1]; compared with incidence within 48 hours", "value": "generally similar to the incidence within 48 hours"}, {"measurement": "other abnormal laboratory values", "setting": "[1]; single dose", "value": "no other abnormal laboratory values of clinical relevance"}, {"measurement": "post-treatment elevations of ALT >3×ULN", "setting": "[1]; single dose", "value": "no observed post-treatment elevations"}, {"measurement": "liver enzyme increases", "setting": "[1]; single-dose study", "value": "no liver enzyme increases clearly attributable to administration of ubrogepant"}, {"measurement": "tolerability on administration", "setting": "[1]; summary statement", "value": "well-tolerated"}]}]}
